What all share (assay): NCI-60 cell line screen, 48 h
Test [1] relates to HOP-62.
Test [2] deals with SK-OV-3.
The subject of test [3] is SW-620.
For test [4], the system named is SK-MEL-5.
Test [5] concerns BT-549.
The test system of test [6] is HCT-15.
The subject of test [7] is COLO 205.
Test [8] relates to K562.
Test [9] concerns SF-295.
The subject of test [10] is M14.
The test system of test [11] is UACC-62.
In test [12] the test system is Hs-578T.
Test [13] relates to HT-29.
For test [14], the system named is KM12.
Test [15] concerns T47D.
Test [16] has as its system RXF 393.
The test system of test [17] is A549.
Test [18] concerns LOX IMVI.
Test [19] has as its system NCI-H460.

This note sets out measurements from ChEMBL document CHEMBL1201862, “PubChem BioAssay data set” (2004).

SMILES strings stand for the structures.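 Results reflect a 48-hour exposure of cells in 96-well plates to compound at five concentrations. Abbreviation: GI50, concentration required for 50% inhibition of growth.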 Calls of active or inactive are those of the source. Rule as the data show it: active = GI50 up to about 1.1 µM and inactive = higher.

`NC(Cc1c[nH]c2ccc([N+](=O)[O-])cc12)C(=O)O` (stereo not drawn): the GI50 in [1] is > 100 µM (inactive); in [2], > 100 µM (inactive); in [3], > 100 µM (inactive); in test [4] it was > 100 µM (inactive); in [5], > 100 µM (inactive); in test [6] it was > 100 µM. In addition, the GI50 in test [7] is > 100 µM (inactive); in test [8], > 100 µM (inactive); in test [9], > 100 µM (inactive); in [10], > 100 µM (inactive); in test [11], > 100 µM (inactive); in [12] it was 24.7 µM (inactive). Also, the GI50 in [13], in test [14], in [15], in [16], in [17] and in [18] was > 100 µM (inactive) in each case.

With `Sc1ccc2ccccc2c1CNCc1ccccc1`, the GI50 is 15.4 µM (inactive) in [1]; 11.8 µM (inactive) in [2]; 9.12 µM (inactive) in test [3]; 9.46 µM (inactive) in test [4]; 15.8 µM (inactive) in [5]; 16.4 µM in [6]. In addition, the GI50 in [7] was 13.7 µM (inactive); in test [8], 13.3 µM (inactive); in test [9], 19.4 µM (inactive); in [10] it was 10 µM (inactive); in [11], 14.3 µM (inactive); in test [19], 24.1 µM (inactive). The GI50 in test [12] was 22.7 µM (inactive); in test [13], 27.9 µM (inactive); in test [14], 13.9 µM (inactive); in [15], 19.3 µM (inactive); in test [16], 11.8 µM (inactive); in test [17], 25.3 µM (inactive). For the same compound, in test [18], the GI50 was 5.78 µM (inactive).

For the compound `CC(C)c1cc(CN(C)C)c(O)c(C(C)(C)C)c1`, the GI50 in [1] is 22.8 µM (inactive); in test [2] it was 98.9 µM (inactive); in test [3], 20.2 µM (inactive); in [4], 14.9 µM (inactive); in test [5], 37.5 µM (inactive); in test [6] it was 23.7 µM. For the same compound, the GI50 is 20.7 µM (inactive) in [7]; 19 µM (inactive) in test [9]; 28.4 µM (inactive) in test [10]; 54.1 µM (inactive) in [11]; 17.3 µM (inactive) in test [19]; 22.6 µM (inactive) in test [12]. Also, the GI50 in [13] is 36.2 µM (inactive); in test [14], 21.4 µM (inactive); in [15], 24.7 µM (inactive); in [16], 18.8 µM (inactive); in [17], 23.2 µM (inactive); in [18] it was 17.4 µM (inactive).

As to `Nc1cc(F)ccc1CC(=O)O`, the GI50 is > 100 µM (inactive) in test [1]; > 100 µM (inactive) in [2]; > 100 µM (inactive) in [3]; > 100 µM (inactive) in test [4]; 79.3 µM (inactive) in test [5]; > 100 µM in test [6]. Further, the GI50 in [7], in [8], in [9], in test [10], in test [11] and in test [12] was > 100 µM (inactive) in each case. Moreover, the GI50 in [13], in [14], in test [15], in [16], in test [17] and in [18] was > 100 µM (inactive) throughout.
